Source: patent US12161115B2, “Herbicidal compounds” (SYNGENTA CROP PROTECTION AG, priority 2019, dated 2024)

Tests used:
Type in all cases: in vivo
wheat crop plants = assay: Crop phytotoxicity comparison, post-emergence; conditions: post-emergence
Procedure: (§1) Seeds of a variety of test species are sown in standard soil in pots (Lolium perenne (LOLPE), Setaria faberi (SETFA), Alopecurus myosuroides (ALOMY), Echinochloa crus-galli (ECHCG), Avena fatua (AVEFA)). After cultivation for one day (pre-emergence) or after 8 days cultivation (post-emergence) under controlled conditions in a glasshouse (at 24/16° C., day/night; 14 hours light; 65% humidity), the plants are sprayed with an aqueous spray solution derived from the formulation of the technical active ingredient in acetone/water (50:50) solution containing 0.5% Tween 20 (polyoxyethelyene sorbitan monolaurate, CAS RN 9005-64-5). Compounds are applied at 250 g/h. The test plants are then grown in a glasshouse under controlled conditions in a glasshouse (at 24/16° C., day/night; 14 hours light; 65% humidity) and watered twice daily. After 13 days for pre and post-emergence, the test is evaluated for the percentage damage caused to the plant. The biological activities are shown in the following table on a five point scale (5=80-100%; 4=60-79%; 3=40-59%; 2=20-39%; 1=0-19%). NT=not tested.
(§2) Using procedures outlines above, wheat and barley crop plants are treated, post-emergence with compounds A1, A3 or A8 of the present invention or comparator compound C1 (Compound A-38 from WO2014/096289) at the application rates indicated. The compounds were also applied in conjunction with the safener compound cloquintocet-mexyl (CQC) at 50 g/ha.

barley crop plants = assay: Crop phytotoxicity comparison, post-emergence; conditions: post-emergence
Procedure: as §1, §2

Setaria faberi (SETFA) [1] = assay: Post-emergence herbicidal glasshouse test; conditions: 250 g/Ha, evaluated after 13 days
Procedure: as §1

Lolium perenne (LOLPE) [2] = assay: Post-emergence herbicidal glasshouse test; conditions: 250 g/Ha, evaluated after 13 days
Procedure: as §1

[3] = tested on: Echinochloa crus-galli (ECHCG); assay: Post-emergence herbicidal glasshouse test; conditions: 250 g/Ha, evaluated after 13 days
Procedure: as §1

[4] = tested on: Alopecurus myosuroides (ALOMY); assay: Post-emergence herbicidal glasshouse test; conditions: 250 g/Ha, evaluated after 13 days
Procedure: as §1

Avena fatua (AVEFA) [5] = assay: Post-emergence herbicidal glasshouse test; conditions: 250 g/Ha, evaluated after 13 days
Procedure: as §1

Setaria faberi (SETFA) [6] = assay: Pre-emergence herbicidal glasshouse test; conditions: 250 g/Ha, evaluated after 13 days
Procedure: as §1

Lolium perenne (LOLPE) [7] = assay: Pre-emergence herbicidal glasshouse test; conditions: 250 g/Ha, evaluated after 13 days
Procedure: as §1

[8] = tested on: Echinochloa crus-galli (ECHCG); assay: Pre-emergence herbicidal glasshouse test; conditions: 250 g/Ha, evaluated after 13 days
Procedure: as §1

[9] = tested on: Alopecurus myosuroides (ALOMY); assay: Pre-emergence herbicidal glasshouse test; conditions: 250 g/Ha, evaluated after 13 days
Procedure: as §1

Avena fatua (AVEFA) [10] = assay: Pre-emergence herbicidal glasshouse test; conditions: 250 g/Ha, evaluated after 13 days
Procedure: as §1

CC#Cc1cc(C)c(C2C(=O)CC3(CCN(C(=O)C(C)=NOC)CC3)CC2=O)c(C)c1 [Compound A1, 9-(2,6-dimethyl-4-prop-1-ynyl-phenyl)-3-(2-methoxyiminopropanoyl)-3-azaspiro[5.5]undecane-8,10-dione]
% phytotoxicity observed, Wheat (wheat crop plants; 30 g/ha): 10%
% phytotoxicity observed, Wheat (wheat crop plants; 60 g/ha): 20%
% phytotoxicity observed, Wheat (wheat crop plants; 60 g/ha + safener cloquintocet-mexyl (CQC) at 50 g/ha): 0%
damage to wheat crop compared to prior art compound C1 (wheat crop plants; summary of Table B3): significantly less damaging
% phytotoxicity observed, Barley (barley crop plants; 30 g/ha): 20%
% phytotoxicity observed, Barley (barley crop plants; 60 g/ha): 40%
damage to barley crop compared to prior art compound C1 (barley crop plants; summary of Table B3): significantly less damaging
percentage damage caused to the plant, five point scale, SETFA (Setaria faberi (SETFA) [1]): 5 (5=80-100%)
percentage damage caused to the plant, five point scale, LOLPE (Lolium perenne (LOLPE) [2]): 5 (5=80-100%)
percentage damage caused to the plant, five point scale, ECHCG [3]: 5 (5=80-100%)
percentage damage caused to the plant, five point scale, ALOMY [4]: 5 (5=80-100%)
percentage damage caused to the plant, five point scale, AVEFA (Avena fatua (AVEFA) [5]): 5 (5=80-100%)
percentage damage caused to the plant, five point scale, SETFA (Setaria faberi (SETFA) [6]): 5 (5=80-100%)
percentage damage caused to the plant, five point scale, LOLPE (Lolium perenne (LOLPE) [7]): 5 (5=80-100%)
percentage damage caused to the plant, five point scale, ECHCG [8]: 5 (5=80-100%)
percentage damage caused to the plant, five point scale, ALOMY [9]: 5 (5=80-100%)
percentage damage caused to the plant, five point scale, AVEFA (Avena fatua (AVEFA) [10]): 5 (5=80-100%)
